Each structure is given as a SMILES string.

Common to all, as to assay: TR-FRET enzymatic activity assay against PI3K isoforms
Holding throughout (format): biochemical

The target in one assay is PI3Kβ (Homo sapiens (Human), UniProt P42338). As to conditions: PI3Kβ, TR-FRET, 2×Km ATP, 30 minutes at 25° C. From the text:
(§1) The compounds of formula (I) were characterized for their enzymatic activity against the PI3K isoforms. […] TR-FRET monitored the formation of 3,4,5-inositol triphosphate molecule that competed with fluorescently labeled PIP3 for binding to the GRP-1 pleckstrin homology domain protein.
Background: In TR-FRET formats the signal depends on donor and acceptor labels being close together.

The next assay concerns the target PI3Kδ (Homo sapiens (Human), UniProt O00329). As to conditions: 2×Km ATP, 30 minutes at 25° C.
Source text: as §1

The target of a further assay is PI3Kγ (Homo sapiens (Human), UniProt P48736). To be noted: 2×Km ATP, 30 minutes at 25° C.
Source text: as §1

Sequence of PI3Kβ (P42338 whole entry, the tested form may be a part, canonical isoform): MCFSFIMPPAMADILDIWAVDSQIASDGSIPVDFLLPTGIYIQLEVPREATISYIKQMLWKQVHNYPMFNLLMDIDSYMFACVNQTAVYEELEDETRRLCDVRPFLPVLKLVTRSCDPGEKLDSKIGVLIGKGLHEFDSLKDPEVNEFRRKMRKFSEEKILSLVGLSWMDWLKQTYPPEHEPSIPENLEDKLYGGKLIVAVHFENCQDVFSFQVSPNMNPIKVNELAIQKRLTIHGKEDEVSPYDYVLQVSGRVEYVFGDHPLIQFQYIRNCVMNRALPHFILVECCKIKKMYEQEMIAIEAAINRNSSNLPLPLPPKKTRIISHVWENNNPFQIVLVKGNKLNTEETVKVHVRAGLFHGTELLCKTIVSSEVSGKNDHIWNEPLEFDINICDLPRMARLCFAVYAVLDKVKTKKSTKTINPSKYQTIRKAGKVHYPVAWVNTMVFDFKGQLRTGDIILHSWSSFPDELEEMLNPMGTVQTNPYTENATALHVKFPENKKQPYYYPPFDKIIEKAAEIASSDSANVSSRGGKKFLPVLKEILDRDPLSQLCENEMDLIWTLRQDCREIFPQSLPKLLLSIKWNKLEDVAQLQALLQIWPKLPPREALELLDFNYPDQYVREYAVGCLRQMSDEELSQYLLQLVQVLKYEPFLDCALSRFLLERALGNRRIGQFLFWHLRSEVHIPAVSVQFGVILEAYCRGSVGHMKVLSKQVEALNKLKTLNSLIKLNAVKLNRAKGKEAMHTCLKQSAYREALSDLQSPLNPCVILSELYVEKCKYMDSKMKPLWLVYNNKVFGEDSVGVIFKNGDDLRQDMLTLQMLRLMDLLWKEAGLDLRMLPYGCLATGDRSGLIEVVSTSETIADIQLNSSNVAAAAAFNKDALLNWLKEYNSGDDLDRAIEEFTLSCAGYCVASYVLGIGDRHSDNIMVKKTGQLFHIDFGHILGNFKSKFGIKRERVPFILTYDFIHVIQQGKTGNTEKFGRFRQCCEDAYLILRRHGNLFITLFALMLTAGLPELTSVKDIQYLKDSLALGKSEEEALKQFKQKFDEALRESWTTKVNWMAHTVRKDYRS
Sequence of PI3Kβ (P27986 whole entry partner, the tested form may be a part, canonical isoform): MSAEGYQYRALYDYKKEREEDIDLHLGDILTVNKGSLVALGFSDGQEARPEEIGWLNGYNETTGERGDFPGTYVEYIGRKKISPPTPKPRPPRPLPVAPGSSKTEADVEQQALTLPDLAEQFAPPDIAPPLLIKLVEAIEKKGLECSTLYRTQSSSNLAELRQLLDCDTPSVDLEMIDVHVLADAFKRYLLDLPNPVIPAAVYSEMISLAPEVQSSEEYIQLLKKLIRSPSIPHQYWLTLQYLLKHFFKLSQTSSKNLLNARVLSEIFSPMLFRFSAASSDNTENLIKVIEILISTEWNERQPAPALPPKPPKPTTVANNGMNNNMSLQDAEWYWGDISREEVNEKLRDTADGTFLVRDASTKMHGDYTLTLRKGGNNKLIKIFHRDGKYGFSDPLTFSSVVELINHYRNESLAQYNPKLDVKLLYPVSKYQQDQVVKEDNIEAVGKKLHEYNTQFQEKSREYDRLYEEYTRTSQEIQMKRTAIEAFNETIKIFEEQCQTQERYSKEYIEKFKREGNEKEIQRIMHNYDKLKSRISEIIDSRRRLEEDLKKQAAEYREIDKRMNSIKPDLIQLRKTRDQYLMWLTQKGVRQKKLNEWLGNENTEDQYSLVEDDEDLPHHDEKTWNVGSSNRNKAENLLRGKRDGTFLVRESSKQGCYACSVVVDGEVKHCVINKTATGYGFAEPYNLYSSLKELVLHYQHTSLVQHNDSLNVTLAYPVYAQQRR
Sequence of PI3Kδ (O00329 whole entry): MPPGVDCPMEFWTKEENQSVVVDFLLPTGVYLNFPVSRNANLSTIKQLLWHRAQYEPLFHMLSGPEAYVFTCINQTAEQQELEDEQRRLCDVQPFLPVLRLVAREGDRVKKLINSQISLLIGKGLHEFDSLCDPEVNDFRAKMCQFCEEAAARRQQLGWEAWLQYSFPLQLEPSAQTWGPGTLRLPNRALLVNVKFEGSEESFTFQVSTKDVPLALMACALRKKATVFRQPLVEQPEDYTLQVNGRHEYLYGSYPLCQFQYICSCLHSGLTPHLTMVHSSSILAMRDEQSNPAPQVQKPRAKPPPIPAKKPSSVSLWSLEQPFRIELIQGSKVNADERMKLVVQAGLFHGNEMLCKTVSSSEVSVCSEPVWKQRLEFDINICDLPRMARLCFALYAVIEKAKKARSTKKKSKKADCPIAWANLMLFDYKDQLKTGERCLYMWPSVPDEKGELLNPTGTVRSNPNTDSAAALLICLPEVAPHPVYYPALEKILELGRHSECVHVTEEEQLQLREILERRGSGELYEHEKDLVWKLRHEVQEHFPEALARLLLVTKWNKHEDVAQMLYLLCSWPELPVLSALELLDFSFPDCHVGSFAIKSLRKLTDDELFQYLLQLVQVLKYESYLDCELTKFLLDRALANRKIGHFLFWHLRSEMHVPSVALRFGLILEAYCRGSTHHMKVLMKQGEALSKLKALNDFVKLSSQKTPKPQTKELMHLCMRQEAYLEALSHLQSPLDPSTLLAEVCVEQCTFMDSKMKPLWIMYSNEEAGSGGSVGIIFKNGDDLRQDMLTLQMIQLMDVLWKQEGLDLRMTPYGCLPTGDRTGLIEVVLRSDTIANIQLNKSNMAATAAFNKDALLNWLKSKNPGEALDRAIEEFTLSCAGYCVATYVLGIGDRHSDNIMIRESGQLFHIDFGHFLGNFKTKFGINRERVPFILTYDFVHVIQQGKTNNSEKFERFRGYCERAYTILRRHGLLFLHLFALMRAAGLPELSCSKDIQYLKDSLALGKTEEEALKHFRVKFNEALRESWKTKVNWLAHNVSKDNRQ
Sequence of PI3Kδ (P27986 whole entry partner): as the sequence (P27986 whole entry partner, the tested form may be a part, canonical isoform) above
Sequence of PI3Kγ (P48736 whole entry): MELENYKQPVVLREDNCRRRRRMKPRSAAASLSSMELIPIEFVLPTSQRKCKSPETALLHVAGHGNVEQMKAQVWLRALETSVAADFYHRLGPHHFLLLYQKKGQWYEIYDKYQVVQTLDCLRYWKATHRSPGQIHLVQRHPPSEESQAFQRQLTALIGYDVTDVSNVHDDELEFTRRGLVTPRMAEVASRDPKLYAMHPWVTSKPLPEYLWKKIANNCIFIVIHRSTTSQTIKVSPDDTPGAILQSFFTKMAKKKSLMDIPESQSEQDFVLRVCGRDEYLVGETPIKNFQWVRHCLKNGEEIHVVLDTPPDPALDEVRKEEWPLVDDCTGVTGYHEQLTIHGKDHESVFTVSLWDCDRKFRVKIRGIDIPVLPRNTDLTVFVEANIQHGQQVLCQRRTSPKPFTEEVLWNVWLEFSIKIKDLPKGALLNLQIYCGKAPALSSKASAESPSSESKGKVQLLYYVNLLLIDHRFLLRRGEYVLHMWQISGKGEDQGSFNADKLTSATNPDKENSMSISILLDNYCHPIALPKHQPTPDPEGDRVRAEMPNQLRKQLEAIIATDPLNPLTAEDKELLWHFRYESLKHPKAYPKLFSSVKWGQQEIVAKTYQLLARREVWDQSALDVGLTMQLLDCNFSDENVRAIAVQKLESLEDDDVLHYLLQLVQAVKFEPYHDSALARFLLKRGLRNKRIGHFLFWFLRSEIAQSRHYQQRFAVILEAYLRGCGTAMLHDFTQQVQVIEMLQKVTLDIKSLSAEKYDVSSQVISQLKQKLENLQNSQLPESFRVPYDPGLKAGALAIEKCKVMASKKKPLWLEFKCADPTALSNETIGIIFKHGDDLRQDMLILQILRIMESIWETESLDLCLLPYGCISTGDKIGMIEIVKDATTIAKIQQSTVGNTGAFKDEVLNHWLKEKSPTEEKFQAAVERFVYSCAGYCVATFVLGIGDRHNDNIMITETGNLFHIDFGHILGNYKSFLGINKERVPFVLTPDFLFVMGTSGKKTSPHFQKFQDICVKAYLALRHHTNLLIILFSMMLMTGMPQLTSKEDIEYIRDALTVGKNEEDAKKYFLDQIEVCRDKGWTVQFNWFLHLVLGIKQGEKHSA

As to `N#Cc1c(N)nc(N)nc1N[C@H](c1nc2c(Cl)ccc(Cl)c2c(=O)n1[C@H]1C[C@@H](O)C1)C1CC1` [Compound 96, 2,4-diamino-6-(((S)-cyclopropyl(5,8-dichloro-3-((cis)-3-hydroxycyclobutyl)-4-oxo-3,4-dihydroquinazolin-2-yl)methyl)amino)pyrimidine-5-carbonitrile], the IC50 against PI3Kβ was found to be 0.01 µM; at PI3Kδ, 0.002 µM; against PI3Kγ it was 0.96 µM.
Consider `N#Cc1c(N)nc(N)nc1N[C@H](c1nc2c(Cl)cc(F)cc2c(=O)n1[C@H]1C[C@H](O)C1)C1CC1` [Compound 97, 2,4-diamino-6-(((S)-(8-chloro-6-fluoro-3-((trans)-3-hydroxycyclobutyl)-4-oxo-3,4-dihydroquinazolin-2-yl)(cyclopropyl)methyl)amino)pyrimidine-5-carbonitrile], for which the values for the concentration for half-maximal inhibition (IC50) against PI3Kβ, against PI3Kδ and against PI3Kγ were 0.058 µM, 0.008 µM and 2.8 µM, respectively.
In the same order, the values of `C[C@H](Nc1nc(N)nc(N)c1C#N)c1nc2c(Cl)cc(F)cc2c(=O)n1[C@H]1C[C@H](O)C1` [Compound 98, 2,4-diamino-6-(((S)-1-(8-chloro-6-fluoro-3-((trans)-3-hydroxycyclobutyl)-4-oxo-3,4-dihydroquinazolin-2-yl)ethyl)amino)pyrimidine-5-carbonitrile] are 0.33 µM, 0.02 µM and 3.2 µM.
For `C[C@H](Nc1nc(N)nc(N)c1C#N)c1nc2c(Cl)cc(F)cc2c(=O)n1[C@H]1C[C@@H](O)C1` [Compound 99, 2,4-diamino-6-(((S)-1-(8-chloro-6-fluoro-3-((cis)-3-hydroxycyclobutyl)-4-oxo-3,4-dihydroquinazolin-2-yl)ethyl)amino)pyrimidine-5-carbonitrile], the half-maximal inhibitory concentration (IC50) worked out at 0.29 µM at PI3Kβ, 0.009 µM against PI3Kδ and 2.4 µM at PI3Kγ.
For the compound `N#Cc1c(N)nc(N)nc1N[C@H](c1nc2c(Cl)ccc(Cl)c2c(=O)n1[C@H]1C[C@H](O)C1)C1CC1` [Compound 100, 2,4-diamino-6-(((S)-cyclopropyl(5,8-dichloro-3-((trans)-3-hydroxycyclobutyl)-4-oxo-3,4-dihydroquinazolin-2-yl)methyl)amino)pyrimidine-5-carbonitrile], the IC50 came out at 0.044 µM against PI3Kβ, 0.003 µM on PI3Kδ and 2.9 µM on PI3Kγ.
Regarding `C[C@H](Nc1nc(N)nc(N)c1C#N)c1nc2c(Cl)ccc(Cl)c2c(=O)n1[C@H]1C[C@H](O)C1` [Compound 101, 2,4-diamino-6-(((S)-1-(5,8-dichloro-3-((trans)-3-hydroxycyclobutyl)-4-oxo-3,4-dihydroquinazolin-2-yl)ethyl)amino)pyrimidine-5-carbonitrile], the concentration for half-maximal inhibition (IC50) against PI3Kβ worked out at 0.14 µM; at PI3Kδ, 0.012 µM; at PI3Kγ, 3.2 µM.
With `N#Cc1c(N)nc(N)nc1N[C@H](c1nc2c(Cl)cc(F)cc2c(=O)n1[C@H]1C[C@@H](O)C1)C1CC1` [Compound 102, 2,4-diamino-6-(((S)-(8-chloro-6-fluoro-3-((cis)-3-hydroxycyclobutyl)-4-oxo-3,4-dihydroquinazolin-2-yl)(cyclopropyl)methyl)amino)pyrimidine-5-carbonitrile], the IC50 at PI3Kβ turned out to be 0.066 µM; against PI3Kδ, 0.002 µM; on PI3Kγ, 1.1 µM.
As for `C[C@H](Nc1nc(N)nc(N)c1C#N)c1nc2c(Cl)ccc(Cl)c2c(=O)n1[C@H]1C[C@@H](O)C1` [Compound 103, 2,4-diamino-6-(((S)-1-(5,8-dichloro-3-((cis)-3-hydroxycyclobutyl)-4-oxo-3,4-dihydroquinazolin-2-yl)ethyl)amino)pyrimidine-5-carbonitrile], the IC50 worked out at 0.021 µM at PI3Kβ, 0.005 µM on PI3Kδ and 2.6 µM on PI3Kγ.
Consider `C[C@H](Nc1nc(N)nc(N)c1C#N)c1nc2cccc(Cl)c2c(=O)n1CCC#N` [Compound 104, (S)-2,4-diamino-6-((1-(5-chloro-3-(2-cyanoethyl)-4-oxo-3,4-dihydroquinazolin-2-yl)ethyl)amino)pyrimidine-5-carbonitrile], for which the IC50 on PI3Kβ was found to be 0.058 µM; at PI3Kδ, 0.009 µM; against PI3Kγ, 0.078 µM.
In the same order, the values of `COCCCn1c([C@H](C)Nc2ncnc(N)c2C#N)nc2cccc(Cl)c2c1=O` [Compound 105, (S)-4-amino-6-((1-(5-chloro-3-(3-methoxypropyl)-4-oxo-3,4-dihydroquinazolin-2-yl)ethyl)amino)pyrimidine-5-carbonitrile] are 0.82 µM, 0.009 µM and 8.4 µM.
In the same order, the values of `COCCCn1c([C@H](C)Nc2ncnc(N)c2C#N)nc2c(Cl)ccc(Cl)c2c1=O` [Compound 106, (S)-4-amino-6-((1-(5,8-dichloro-3-(3-methoxypropyl)-4-oxo-3,4-dihydroquinazolin-2-yl)ethyl)amino)pyrimidine-5-carbonitrile] are 0.59 µM, 0.008 µM and more than 10 µM.
As for `COCCCn1c([C@H](C)Nc2nc(N)nc(N)c2C#N)nc2c(Cl)ccc(Cl)c2c1=O` [Compound 107, (S)-2,4-diamino-6-((1-(5,8-dichloro-3-(3-methoxypropyl)-4-oxo-3,4-dihydroquinazolin-2-yl)ethyl)amino)pyrimidine-5-carbonitrile], the IC50 on PI3Kβ was 0.082 µM; on PI3Kδ, 0.003 µM; at PI3Kγ it was 1.7 µM.
In the same order, the values of `COCCCn1c([C@H](C)Nc2ncnc(N)c2C#N)nc2c(F)ccc(F)c2c1=O` [Compound 108, (S)-4-amino-6-((1-(5,8-difluoro-3-(3-methoxypropyl)-4-oxo-3,4-dihydroquinazolin-2-yl)ethyl)amino)pyrimidine-5-carbonitrile] are 2 µM, 0.039 µM and not below 10 µM.
Take `COCCCn1c([C@H](C)Nc2nc(N)nc(N)c2C#N)nc2c(F)ccc(F)c2c1=O` [Compound 109, (S)-2,4-diamino-6-((1-(5,8-difluoro-3-(3-methoxypropyl)-4-oxo-3,4-dihydroquinazolin-2-yl)ethyl)amino)pyrimidine-5-carbonitrile]: the concentration for half-maximal inhibition (IC50) against PI3Kβ stood at 0.52 µM; on PI3Kδ, 0.014 µM; at PI3Kγ, 2.19 µM.
As for `C[C@H](Nc1nc(N)nc(N)c1C#N)c1nc2cccc(Cl)c2c(=O)n1CCCC#N` [Compound 110, (S)-2,4-diamino-6-((1-(5-chloro-3-(3-cyanopropyl)-4-oxo-3,4-dihydroquinazolin-2-yl)ethyl)amino)pyrimidine-5-carbonitrile], the IC50 came to 0.042 µM at PI3Kβ, 0.004 µM on PI3Kδ and 0.18 µM on PI3Kγ.
Turning to `C[C@H](Nc1nc(N)nc(N)c1C#N)c1nc2cccc(Cl)c2c(=O)n1CCCS(C)(=O)=O` [Compound 111, (S)-2,4-diamino-6-((1-(5-chloro-3-(3-(methylsulfonyl)propyl)-4-oxo-3,4-dihydroquinazolin-2-yl)ethyl)amino)pyrimidine-5-carbonitrile], the results for the IC50 against PI3Kβ, at PI3Kδ and at PI3Kγ were 0.04 µM, 0.003 µM and 0.53 µM, respectively.
For `N#CCCn1c([C@@H](Nc2nc(N)nc(N)c2C#N)C2CC2)nc2cccc(Cl)c2c1=O` [Compound 112, (S)-2,4-diamino-6-(((5-chloro-3-(2-cyanoethyl)-4-oxo-3,4-dihydroquinazolin-2-yl)(cyclopropyl)methyl)amino)pyrimidine-5-carbonitrile], the 50% inhibitory concentration (IC50) on PI3Kβ was 0.008 µM; against PI3Kδ, 0.003 µM; against PI3Kγ, 0.062 µM.

As a reminder, the IC50 is the concentration needed to halve the response being measured. A lower IC50 goes with higher potency.

These data come from patent publication US11021467B2, “Phosphatidylinositol 3-kinase inhibitors” (Gilead Sciences, Inc., priority 2014, dated 2021).
